Where “and” joins values, the source holds several entries; their conditions need not be identical. Equal entries are not always repeated. Marks after values point to notes of the source that are not given here.
Key:
[1] = cited from earlier work
[2] = cited from earlier work; remark: listed apart in the source
[3] = doses of 15 mg or 20 mg in the absence of food; cited from earlier work
[4] = Integrated population pharmacokinetic model
[5] = final population PK model, comedication factor on CL/F

θCL/F, VTE >72 h (study-specific factor on CL/F) ([4]; VTE prevention, >72 hours, relative to VTE treatment (factor = 1)): 1.29 Proportion
θCL/F, VTE ≤72 h (study-specific factor on CL/F) ([4]; VTE prevention, ≤72 hours, relative to VTE treatment (factor = 1)): 1.04 Proportion
θCL/F, ACS (study-specific factor on CL/F) ([4]; acute coronary syndrome population, relative to VTE treatment (factor = 1)): 1.14 Proportion
θCL/F, AF (study-specific factor on CL/F) ([4]; atrial fibrillation population, relative to VTE treatment (factor = 1)): 0.85 Proportion and 0.849 Proportion
D50 (dose parameter of relative bioavailability function) ([4]; final population PK model): 14.4 mg
ω2 CL/F (interindividual variability) ([4]; final population PK model): 0.167 (10.3) ^d Variance
ω2 CL/F, V/F ([4]; final population PK model): 0.0674 Covariance
ω2 ka (interindividual variability) ([4]; final population PK model): 0.628 (32.8) ^d Variance
ω^2 V/F (interindividual variability) ([4]; final population PK model): 0.0391 (25.7) ^d Variance
ka (first-order absorption rate constant) ([4]; final population PK model (run 12), 4,918 patients, oral rivaroxaban): 0.821 h⁻¹
θCL/F, CYP3A4 inducer [4, 5]: 1.30 Proportion
θCL/F, Medium CYP3A4 inhibitor [4, 5]: 0.863 Proportion
θCL/F, Strong CYP3A4 inhibitor [4, 5]: 0.978 Proportion
θCL/F, Weak CYP3A4 inhibitor [4, 5]: 0.939 Proportion
θCL/F, PGP ([4]; final population PK model, comedication with P-gp inhibitor, factor on CL/F): 0.966 Proportion
θCL/F, CrCL ([4]; final population PK model, effect of Tietz-truncated CrCL on CL/F): 0.406 Power
θV/F, Age ([4]; final population PK model, effect of age on V/F): −0.189 Power
θV/F, Sex ([4]; final population PK model, effect of gender (female) on V/F): 0.889 Proportion
θCL/F, weight ([4]; final population PK model, effect of weight on CL/F): −0.278 Power
θV/F, weight ([4]; final population PK model, effect of weight on V/F): 0.216 Power
Fmax (relative bioavailability as a function of dose) ([4]; final population PK model, fixed, relative bioavailability fixed at 1.0 for a 10 mg dose): 1.25 Proportion
σ2 prop (residual variability) ([4]; final population PK model, proportional residual error): 0.203 (10.3) ^d Variance
Fmin (relative bioavailability as a function of dose) ([4]; final population PK model, relative to 10 mg dose (F = 1)): 0.590 Proportion
AUC increase in the presence of strong CYP3A4 inhibitors ([4]; integrated population PK model): 1.02 fold
Structure (SMILES): O=C(NC[C@H]1CN(c2ccc(N3CCOCC3=O)cc2)C(=O)O1)c1ccc(Cl)s1 [rivaroxaban]
Biopharmaceutics Classification System class [1]: class 2
permeability (BCS classification) [1]: high permeability
solubility (BCS classification) [1]: low solubility
fraction of the dose eliminated renally as unchanged drug [2]: Approximately one‐third
bioavailability and absorption rate vs dose [3]: less than dose proportional

Source: article PMC5980303 (CPT: Pharmacometrics & Systems Pharmacology, 2018)
